Measurements: ChEMBL document CHEMBL4011590, “Structure-activity relationship studies on 3,5-dinitrophenyl tetrazoles as antitubercular agents” (Eur J Med Chem, 2017)
Values after ≈ are worked out from the molar mass of the structure shown.

Legend:
[1] = tested on: Mycobacterium tuberculosis; assay: Antimycobacterial activity against Mycobacterium tuberculosis H37Rv CNCTC My 331/88 after 14 days by micromethod; format: functional; conditions: H37Rv CNCTC My 331/88, 336 h
[2] = tested on: Mycobacterium tuberculosis; assay: Antimycobacterial activity against Mycobacterium tuberculosis H37Rv CNCTC My 331/88 after 21 days by micromethod; format: functional; conditions: H37Rv CNCTC My 331/88, 504 h
[3] = tested on: Mycobacterium avium; assay: Antimycobacterial activity against Mycobacterium avium CNCTC My 330/80 after 14 days by micromethod; format: functional; conditions: CNCTC My 330/80, 336 h
[4] = tested on: Mycobacterium avium; assay: Antimycobacterial activity against Mycobacterium avium CNCTC My 330/80 after 21 days by micromethod; format: functional; conditions: CNCTC My 330/80, 504 h
[5] = tested on: Mycobacterium kansasii; assay: Antimycobacterial activity against Mycobacterium kansasii CNCTC My 235/80 after 7 days by micromethod; format: functional; conditions: CNCTC My 235/80, 168 h
[6] = tested on: Mycobacterium kansasii; assay: Antimycobacterial activity against Mycobacterium kansasii CNCTC My 235/80 after 14 days by micromethod; format: functional; conditions: CNCTC My 235/80, 336 h
[7] = tested on: Mycobacterium kansasii; assay: Antimycobacterial activity against Mycobacterium kansasii CNCTC My 235/80 after 21 days by micromethod; format: functional; conditions: CNCTC My 235/80, 504 h
[8] = tested on: Mycobacterium kansasii; assay: Antimycobacterial activity against Mycobacterium kansasii isolate 6509/96 after 7 days by micromethod; format: functional; conditions: isolate 6509/96, 168 h
[9] = tested on: Mycobacterium kansasii; assay: Antimycobacterial activity against Mycobacterium kansasii isolate 6509/96 after 14 days by micromethod; format: functional; conditions: isolate 6509/96, 336 h
[10] = tested on: Mycobacterium kansasii; assay: Antimycobacterial activity against Mycobacterium kansasii isolate 6509/96 after 21 days by micromethod; format: functional; conditions: isolate 6509/96, 504 h
[11] = tested on: CHO-K1; assay: Cytotoxicity against CHOK1 cells after 24 hrs by MTT assay; format: cell-based; conditions: Cricetulus griseus, CHO-K1, 24 h
[12] = tested on: Staphylococcus aureus; assay: Antibacterial activity against Staphylococcus aureus ATCC 6538 after 24 hrs by broth microdilution method; format: functional; conditions: ATCC 6538, 24 h
[13] = tested on: Staphylococcus aureus; assay: Antibacterial activity against Staphylococcus aureus ATCC 6538 after 48 hrs by broth microdilution method; format: functional; conditions: ATCC 6538, 48 h
[14] = tested on: Staphylococcus aureus; assay: Antibacterial activity against methicillin-resistant Staphylococcus aureus HK5996/08 after 24 hrs by broth microdilution method; format: functional; conditions: HK5996/08, 24 h
[15] = tested on: Staphylococcus aureus; assay: Antibacterial activity against methicillin-resistant Staphylococcus aureus HK5996/08 after 48 hrs by broth microdilution method; format: functional; conditions: HK5996/08, 48 h
[16] = tested on: Staphylococcus epidermidis; assay: Antibacterial activity against Staphylococcus epidermidis HK6966/08 after 24 hrs by broth microdilution method; format: functional; conditions: HK6966/08, 24 h
[17] = tested on: Staphylococcus epidermidis; assay: Antibacterial activity against Staphylococcus epidermidis HK6966/08 after 48 hrs by broth microdilution method; format: functional; conditions: HK6966/08, 48 h
[18] = tested on: Enterococcus sp.; assay: Antibacterial activity against Enterococcus sp. HK14365/08 after 24 hrs by broth microdilution method; format: functional; conditions: HK14365/08, 24 h
[19] = tested on: Enterococcus sp.; assay: Antibacterial activity against Enterococcus sp. HK14365/08 after 48 hrs by broth microdilution method; format: functional; conditions: HK14365/08, 48 h
[20] = tested on: Escherichia coli; assay: Antibacterial activity against Escherichia coli ATCC 8739 after 24 hrs by broth microdilution method; format: functional; conditions: ATCC 8739, 24 h
[21] = tested on: Escherichia coli; assay: Antibacterial activity against Escherichia coli ATCC 8739 after 48 hrs by broth microdilution method; format: functional; conditions: ATCC 8739, 48 h
[22] = tested on: Klebsiella pneumoniae; assay: Antibacterial activity against Klebsiella pneumoniae HK11750/08 after 24 hrs by broth microdilution method; format: functional; conditions: HK11750/08, 24 h
[23] = tested on: Klebsiella pneumoniae; assay: Antibacterial activity against Klebsiella pneumoniae HK11750/08 after 48 hrs by broth microdilution method; format: functional; conditions: HK11750/08, 48 h
[24] = tested on: Klebsiella pneumoniae; assay: Antibacterial activity against extended spectrum beta-lactamase producing Klebsiella pneumoniae HK14368/08 after 24 hrs by broth microdilution method; format: functional; conditions: HK14368/08, 24 h
[25] = tested on: Klebsiella pneumoniae; assay: Antibacterial activity against extended spectrum beta-lactamase producing Klebsiella pneumoniae HK14368/08 after 48 hrs by broth microdilution method; format: functional; conditions: HK14368/08, 48 h
[26] = tested on: Pseudomonas aeruginosa; assay: Antibacterial activity against Pseudomonas aeruginosa ATCC 9027 after 24 hrs by broth microdilution method; format: functional; conditions: ATCC 9027, 24 h
[27] = tested on: Pseudomonas aeruginosa; assay: Antibacterial activity against Pseudomonas aeruginosa ATCC 9027 after 48 hrs by broth microdilution method; format: functional; conditions: ATCC 9027, 48 h
[28] = tested on: Candida albicans; assay: Antifungal activity against Candida albicans ATCC 44859 after 24 hrs by broth microdilution method; format: functional; conditions: ATCC 44859, 24 h
[29] = tested on: Candida albicans; assay: Antifungal activity against Candida albicans ATCC 44859 after 48 hrs by broth microdilution method; format: functional; conditions: ATCC 44859, 48 h
[30] = tested on: Candida tropicalis; assay: Antifungal activity against Candida tropicalis 156 after 24 hrs by broth microdilution method; format: functional; conditions: Candida tropicalis, 156, 24 h
[31] = tested on: Candida tropicalis; assay: Antifungal activity against Candida tropicalis 156 after 48 hrs by broth microdilution method; format: functional; conditions: Candida tropicalis, 156, 48 h
[32] = tested on: Pichia kudriavzevii; assay: Antifungal activity against Candida krusei E28 after 24 hrs by broth microdilution method; format: functional; conditions: E28, 24 h
[33] = tested on: Pichia kudriavzevii; assay: Antifungal activity against Candida krusei E28 after 48 hrs by broth microdilution method; format: functional; conditions: E28, 48 h
[34] = tested on: Nakaseomyces glabratus; assay: Antifungal activity against Candida glabrata 20/I after 24 hrs by broth microdilution method; format: functional
[35] = tested on: Nakaseomyces glabratus; assay: Antifungal activity against Candida glabrata 20/I after 48 hrs by broth microdilution method; format: functional
[36] = tested on: Trichosporon asahii; assay: Antifungal activity against Trichosporon asahii 1188 after 24 hrs by broth microdilution method; format: functional; conditions: Trichosporon asahii, 1188, 24 h
[37] = tested on: Trichosporon asahii; assay: Antifungal activity against Trichosporon asahii 1188 after 48 hrs by broth microdilution method; format: functional; conditions: Trichosporon asahii, 1188, 48 h
[38] = tested on: Aspergillus fumigatus; assay: Antifungal activity against Aspergillus fumigatus 231 after 24 hrs by broth microdilution method; format: functional; conditions: Aspergillus fumigatus, 231, 24 h
[39] = tested on: Aspergillus fumigatus; assay: Antifungal activity against Aspergillus fumigatus 231 after 48 hrs by broth microdilution method; format: functional; conditions: Aspergillus fumigatus, 231, 48 h
[40] = tested on: Lichtheimia corymbifera; assay: Antifungal activity against Absidia corymbifera 272 after 24 hrs by broth microdilution method; format: functional; conditions: Lichtheimia corymbifera, 272, 24 h
[41] = tested on: Lichtheimia corymbifera; assay: Antifungal activity against Absidia corymbifera 272 after 48 hrs by broth microdilution method; format: functional; conditions: Lichtheimia corymbifera, 272, 48 h
[42] = tested on: Trichophyton mentagrophytes; assay: Antifungal activity against Trichophyton mentagrophytes 445 after 72 hrs by broth microdilution method; format: functional; conditions: Trichophyton mentagrophytes, 445, 72 h
[43] = tested on: Trichophyton mentagrophytes; assay: Antifungal activity against Trichophyton mentagrophytes 445 after 120 hrs by broth microdilution method; format: functional; conditions: Trichophyton mentagrophytes, 445, 120 h

**Q.** What does the source list for `COc1cccc(-n2nnnc2SCn2nnc(-c3cc([N+](=O)[O-])cc([N+](=O)[O-])c3)n2)c1`?
**A.** MIC99 [1]: 0.03 µM (≈ 0.0137 µg/mL); MIC99 [2]: 0.03 µM (≈ 0.0137 µg/mL); MIC99 [3]: 8 µM (≈ 3.65 µg/mL); MIC99 [4]: 16 µM (≈ 7.3 µg/mL); MIC99 [5]: 1 µM (≈ 0.456 µg/mL); MIC99 [6]: 1 µM (≈ 0.456 µg/mL); MIC99 [7]: 2 µM (≈ 0.913 µg/mL); MIC99 [8]: 0.5 µM (≈ 0.228 µg/mL); MIC99 [9]: 1 µM (≈ 0.456 µg/mL); MIC99 [10]: 1 µM (≈ 0.456 µg/mL); IC50 [11]: 135 µM; MIC [12]: > 125 µM; MIC [13]: > 125 µM; MIC [14]: > 125 µM; MIC [15]: > 125 µM; MIC [16]: > 125 µM; MIC [17]: > 125 µM; MIC [18]: > 125 µM; MIC [19]: > 125 µM; MIC [20]: > 125 µM; MIC [21]: > 125 µM; MIC [22]: > 125 µM; MIC [23]: > 125 µM; MIC [24]: > 125 µM; MIC [25]: > 125 µM; MIC [26]: > 125 µM; MIC [27]: > 125 µM; MIC [28]: > 500 µM; MIC [29]: > 500 µM; MIC [30]: > 500 µM; MIC [31]: > 500 µM; MIC [32]: > 500 µM; MIC [33]: > 500 µM; MIC [34]: > 500 µM; MIC [35]: > 500 µM; MIC [36]: > 500 µM; MIC [37]: > 500 µM; MIC [38]: > 500 µM; MIC [39]: > 500 µM; MIC [40]: > 500 µM; MIC [41]: > 500 µM; MIC [42]: > 500 µM; MIC [43]: > 500 µM
